Experiments:
Experiment in all cases: PhosphoSens CSox based kinase assay
Format in all cases: biochemical
TRK B = molecular target: T1, TRK B (Homo sapiens, UniProt Q16620); conditions: 5 μM HU-MCA-13; intracellular kinase domain
T1 construct: TRKB, amino acids 456 -822, BPS Bio; purchased BPS Bio 40281 (lot 130826)
Description: (§1) The initial focus was to measure the modulatory activity in vitro of MCA-13 on protein kinases which were reported to be involved in induction of neurite outgrowth.[18],[43] To do this, we took advantage of a powerful method to measure the activity of recombinant protein kinases using a homogeneous and continuous (kinetic) format, where the level of chelation-enhanced fluorescence (CHEF) is directly proportional to the amount of phosphorylated, real-time sensors consisting of sulfonamido-oxine (Sox) chromophore linked to a peptide or protein substrates of selective kinases.[44] This assay is ideal for elucidating drug mechanism of action and is increasingly being applied earlier in the drug development workflow to address off target effects and/or the challenges and opportunities for next generation protein kinase inhibitors.[45] Since neurotrophins induce neurite outgrowth by activating the different tropomyosin kinase receptors (Trk), and small molecules agonists of Trk receptors can selectively activate Trks,[46] we first investigated the ability of HU-MCA-13 to modulate TRKA, TRKB and TRKC phosphorylation activities (Supporting Information, Figure S3-2). […] The TRKs constructs used in the assay contained only the intracellular kinase domain (amino acids 442–786) and therefore presently we cannot exclude that HU-MCA-13 may interact with the TRKs extracellular domain thereby inducing the conformational change required for the kinase domain activation. […] Moreover, no effects of HU-MCA-13were found on other kinases (ASK1, ERK2, JNK3, p38α, CDK5, KDR-VEGFR, AKT1, GSK3β, PDGFRβ, PKACα, PKC, CK1, IKKβ) which stimulate neurite outgrowth. Also, no effects were observed of HU-MCA-13 on kinases (EGFR, IGF1R, FGFR 1 and 2, CAMK2α,) which inhibit neurite outgrowth or calcineurin phosphatase which dephosphorylates the neurite outgrowth stimulatory protein, cofilin.[47]
(§2) MCA-13 safety b y in vitro eval uati on usi ng Phos pho Sens®C Soxb ased kinase […]
(§3) Method: Kinase Activity Measurements
(§4) Kinase activity was measured continuously using the PhosphoSens®technology (AssayQuant Technologies Inc., Marlborough, MA) according to the manufacturers’ recommendations (http://www.assayquant.com/) . This one-step homogeneous assay use s chelation-enh anced fluorescence via optimized substrate sensors unique for each kinase, containing the unnatural fluorogenic amino-acid Sox.
(§5) The following kinases which, upon stimulation or inhibition with small molecule modulators, induced neurite outgrowth, were obtained from different companies and were used in this study at the following concentrations: 2.
(§6) 25 µL final reaction volume including : 2.5 µl Sox-based substrate (10 x), 17.5 µl reaction mix with AT P, 5.0 µL Kinase [5x in EDB (Enzyme Dilution Buffer : 20 mM TRIS, pH 8.0, 0.01% Brij -35, 0.1 mM EGTA, 5% Glycerol, 1 mM DTT, 1 mg/mL Bovine Serum Albumin]. 5-45 min preincubation (all except EDB/kinase) at 30 °C of substrate in reaction mix and ATP ensuring that the progress kinetic curve for the background fluorescence w as flat. Reaction was run at 30 °C for […]
(§7) Final Reaction Conditions.
(§8) Protein kinase activity was determined in 54 mM HEPES, pH 7.5 1 mM ATP 1.2 mM DTT (none in ASK1) 0.012% Brij-35 1% glycerol 0.2 mg/ml BSA 0.52 mM EGTA (none in assays of CAMK2α, PKCε, PKCι, Calcineurin A/B) 140 µM phosphatidylserine/3.8 µM diacylglycerol (PKCε, PKCι only) 5 ng/µl calmodulin/0.4 mM CaCl2 (CAMK2α, Calcineurin A/B only) 10 mM […]
(§9) IKKβ, AKT1, GSK3β, PKCε, PKCι, PKACα, KDR, CK1δ, EGFR, ASK1, IGF1R, CAMK2α, DLK, FGFR2, FGFR1) in the presence or absence of 5 µ M H U-MCA-13 test compound. All components e xcept enzyme were equilibrated to 30 °C prior to setting up reactions run in Corning, 384-well, white flat round bottom polystyrene NBS microplates (Cat. #3824) after sealing using optically-clear adhesive film [TopSealA -Plus plate seal, PerkinElmer (Cat. #6050185)], applied with a roller to eliminate evaporation and resulting drift. Europium was added to a final […]

AKT1 = molecular target: T2, AKT1 (Homo sapiens, UniProt P31749); conditions: 5 μM HU-MCA-13
T2 construct: AKT1, amino acids 104-480, Carna (cat. & lot #: 01 -101,; purchased Carna 01-101
T2 sequence (P31749 104-480): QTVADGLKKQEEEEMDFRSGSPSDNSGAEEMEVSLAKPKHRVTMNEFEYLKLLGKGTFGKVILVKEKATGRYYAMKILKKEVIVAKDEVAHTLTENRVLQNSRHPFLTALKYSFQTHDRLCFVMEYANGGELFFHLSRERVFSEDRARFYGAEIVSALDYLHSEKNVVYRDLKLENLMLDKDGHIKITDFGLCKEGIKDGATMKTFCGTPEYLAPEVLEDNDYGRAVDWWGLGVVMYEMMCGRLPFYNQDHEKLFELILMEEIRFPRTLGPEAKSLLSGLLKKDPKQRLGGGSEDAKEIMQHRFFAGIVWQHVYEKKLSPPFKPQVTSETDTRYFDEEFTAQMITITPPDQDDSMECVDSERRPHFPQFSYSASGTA
Description: as §1, §2, §3, §4, §5, §6, §7, §8, §9

GSK3β = molecular target: T3, GSK3β (Homo sapiens, UniProt P49841); conditions: 5 μM HU-MCA-13
T3 construct: GSK3β, amino acids 1 -420, Carna (cat. & lot #: 04-141/13CBS-; purchased Carna 04-141
T3 sequence (P49841 whole entry, the tested form may be a part): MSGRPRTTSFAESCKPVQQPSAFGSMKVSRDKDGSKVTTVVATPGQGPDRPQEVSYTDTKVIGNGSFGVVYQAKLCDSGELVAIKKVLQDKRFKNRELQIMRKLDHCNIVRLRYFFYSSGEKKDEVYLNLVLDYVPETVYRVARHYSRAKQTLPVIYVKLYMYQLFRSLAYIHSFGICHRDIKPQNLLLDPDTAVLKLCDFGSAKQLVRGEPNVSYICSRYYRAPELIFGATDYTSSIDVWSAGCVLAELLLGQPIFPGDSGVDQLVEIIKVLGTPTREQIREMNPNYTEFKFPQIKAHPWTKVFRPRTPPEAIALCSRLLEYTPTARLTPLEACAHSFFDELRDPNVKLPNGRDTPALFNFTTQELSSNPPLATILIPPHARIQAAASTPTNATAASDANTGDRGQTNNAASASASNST
Description: as §1, §2, §3, §4, §5, §6, §7, §8, §9

IGF1R = molecular target: T4, IGF1R (Homo sapiens, UniProt P08069); conditions: 5 μM HU-MCA-13
T4 construct: amino acids 959-1367, Carna (cat. & lot #: 08); purchased Carna 08-141
Description: as §1, §2, §3, §4, §5, §6, §7, §8, §9

PDGFRβ = molecular target: T5, PDGFRβ (Homo sapiens, UniProt P09619); conditions: 5 μM HU-MCA-13
T5 construct: PDGFRβ, amino acids 557 -1106, Carna; purchased Carna 08-158
T5 sequence (P09619 557-1106): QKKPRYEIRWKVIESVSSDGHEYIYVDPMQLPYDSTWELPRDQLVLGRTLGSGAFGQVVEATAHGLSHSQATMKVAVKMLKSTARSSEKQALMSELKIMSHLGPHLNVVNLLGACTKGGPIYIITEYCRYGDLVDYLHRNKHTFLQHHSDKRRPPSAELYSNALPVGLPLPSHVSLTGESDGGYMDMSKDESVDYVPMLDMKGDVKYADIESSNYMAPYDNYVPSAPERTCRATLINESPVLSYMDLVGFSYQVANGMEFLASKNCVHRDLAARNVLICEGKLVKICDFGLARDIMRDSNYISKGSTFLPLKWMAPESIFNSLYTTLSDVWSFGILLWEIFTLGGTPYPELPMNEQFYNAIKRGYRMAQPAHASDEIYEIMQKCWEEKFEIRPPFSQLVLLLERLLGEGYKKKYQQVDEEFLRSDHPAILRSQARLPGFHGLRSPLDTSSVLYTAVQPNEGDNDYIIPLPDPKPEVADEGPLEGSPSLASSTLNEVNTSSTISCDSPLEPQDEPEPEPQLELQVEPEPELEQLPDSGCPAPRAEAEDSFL
Description: as §1, §2, §3, §4, §5, §6, §7, §8, §9

FGFR 2 = molecular target: T6, FGFR 2 (Homo sapiens, UniProt P21802); conditions: 5 μM HU-MCA-13
T6 construct: purchased Carna 08-134
T6 sequence (P21802 399-821): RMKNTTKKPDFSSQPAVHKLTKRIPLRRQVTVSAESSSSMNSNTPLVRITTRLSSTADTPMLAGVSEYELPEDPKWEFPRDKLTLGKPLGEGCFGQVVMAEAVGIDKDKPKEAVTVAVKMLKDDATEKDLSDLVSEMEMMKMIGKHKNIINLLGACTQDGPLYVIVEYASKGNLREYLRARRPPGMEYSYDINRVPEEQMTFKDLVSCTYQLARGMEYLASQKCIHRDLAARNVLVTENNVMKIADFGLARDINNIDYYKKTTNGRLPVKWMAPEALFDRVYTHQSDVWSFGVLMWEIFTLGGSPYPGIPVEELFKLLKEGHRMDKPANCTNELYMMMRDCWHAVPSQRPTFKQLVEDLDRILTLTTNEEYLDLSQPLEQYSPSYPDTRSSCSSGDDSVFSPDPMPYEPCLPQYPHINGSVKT
Description: as §1, §2, §3, §4, §5, §6, §7, §8, §9

KDR-VEGFR = molecular target: T7, KDR-VEGFR (Homo sapiens, UniProt P35968); conditions: 5 μM HU-MCA-13
T7 construct: KDR, amino acids 790 -1356, Carna (cat. & lot #: 08 -191,; purchased Carna 08-191
T7 sequence (P35968 790-1356): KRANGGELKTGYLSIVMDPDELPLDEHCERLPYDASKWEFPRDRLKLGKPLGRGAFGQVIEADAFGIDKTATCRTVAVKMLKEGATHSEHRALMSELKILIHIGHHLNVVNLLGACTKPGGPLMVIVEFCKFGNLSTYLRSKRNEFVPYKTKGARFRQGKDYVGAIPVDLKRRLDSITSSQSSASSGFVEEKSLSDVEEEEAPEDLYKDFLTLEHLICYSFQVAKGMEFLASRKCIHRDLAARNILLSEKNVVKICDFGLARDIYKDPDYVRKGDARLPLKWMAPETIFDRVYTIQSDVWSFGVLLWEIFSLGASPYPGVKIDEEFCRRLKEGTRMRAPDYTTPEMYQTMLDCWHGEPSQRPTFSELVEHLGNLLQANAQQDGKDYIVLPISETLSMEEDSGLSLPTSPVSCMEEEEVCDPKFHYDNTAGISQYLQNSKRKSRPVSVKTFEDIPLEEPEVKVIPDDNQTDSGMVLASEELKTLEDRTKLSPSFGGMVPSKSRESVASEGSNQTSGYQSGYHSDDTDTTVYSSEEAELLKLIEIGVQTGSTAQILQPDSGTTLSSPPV
Description: as §1, §2, §3, §4, §5, §6, §7, §8, §9

EGFR = molecular target: T8, EGFR (Homo sapiens, UniProt P00533); conditions: 5 μM HU-MCA-13
T8 construct: amino acids 668-1210, BPS Bio (cat. & lot #: 40187,; purchased BPS Bio 40187
T8 sequence (P00533 668-1210): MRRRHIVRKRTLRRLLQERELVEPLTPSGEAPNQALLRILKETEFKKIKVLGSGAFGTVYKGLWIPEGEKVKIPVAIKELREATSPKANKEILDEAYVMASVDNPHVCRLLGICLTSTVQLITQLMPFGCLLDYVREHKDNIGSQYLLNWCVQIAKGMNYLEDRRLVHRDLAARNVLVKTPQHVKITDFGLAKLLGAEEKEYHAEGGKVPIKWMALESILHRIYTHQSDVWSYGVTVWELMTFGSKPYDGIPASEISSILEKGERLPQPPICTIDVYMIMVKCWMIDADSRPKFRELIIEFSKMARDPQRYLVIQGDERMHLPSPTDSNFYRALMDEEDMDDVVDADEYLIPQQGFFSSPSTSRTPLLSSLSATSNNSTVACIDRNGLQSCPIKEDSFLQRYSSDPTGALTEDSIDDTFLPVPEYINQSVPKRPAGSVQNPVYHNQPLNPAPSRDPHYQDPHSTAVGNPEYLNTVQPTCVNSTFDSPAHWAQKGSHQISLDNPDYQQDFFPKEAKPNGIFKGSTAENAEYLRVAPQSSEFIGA
Description: as §1, §2, §3, §4, §5, §6, §7, §8, §9

p38α = molecular target: T9, p38α (Homo sapiens, UniProt Q16539); conditions: 5 μM HU-MCA-13
T9 construct: p38α, amino acids 9-352, Carna (cat. & lot #: 04-152,; purchased Carna 04-152
T9 sequence (Q16539 9-352): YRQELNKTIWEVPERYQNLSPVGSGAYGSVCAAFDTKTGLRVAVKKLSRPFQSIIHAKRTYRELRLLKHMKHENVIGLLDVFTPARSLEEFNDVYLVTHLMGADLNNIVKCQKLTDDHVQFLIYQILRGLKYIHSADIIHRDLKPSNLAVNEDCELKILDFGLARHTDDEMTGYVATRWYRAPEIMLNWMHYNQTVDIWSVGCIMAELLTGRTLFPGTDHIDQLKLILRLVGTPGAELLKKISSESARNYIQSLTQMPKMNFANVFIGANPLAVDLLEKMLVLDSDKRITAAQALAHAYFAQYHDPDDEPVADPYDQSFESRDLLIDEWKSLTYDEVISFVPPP
Description: as §1, §2, §3, §4, §5, §6, §7, §8, §9

CDK5 = molecular target: T10, CDK5 (Homo sapiens, UniProt Q00535); conditions: 5 μM HU-MCA-13
T10 construct: CDK5/p25, amino acids 1 -292/99 -307, Carna; purchased Carna 04-106
T10 sequence (Q00535 whole entry, the tested form may be a part): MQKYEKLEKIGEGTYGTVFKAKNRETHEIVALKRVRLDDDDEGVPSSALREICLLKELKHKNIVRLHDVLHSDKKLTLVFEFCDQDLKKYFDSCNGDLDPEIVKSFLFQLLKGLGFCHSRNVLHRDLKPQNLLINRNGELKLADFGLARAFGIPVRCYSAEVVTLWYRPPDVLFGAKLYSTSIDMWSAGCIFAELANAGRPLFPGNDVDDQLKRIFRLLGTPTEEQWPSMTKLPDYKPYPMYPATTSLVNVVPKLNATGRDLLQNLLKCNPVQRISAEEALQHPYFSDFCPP
T10 sequence (Q15078 99-307 partner limits assumed): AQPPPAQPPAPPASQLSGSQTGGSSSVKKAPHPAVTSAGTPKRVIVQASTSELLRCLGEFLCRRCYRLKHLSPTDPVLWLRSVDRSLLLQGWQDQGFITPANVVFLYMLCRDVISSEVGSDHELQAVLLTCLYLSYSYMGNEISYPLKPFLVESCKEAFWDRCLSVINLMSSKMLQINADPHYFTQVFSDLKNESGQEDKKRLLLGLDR
Description: as §1, §2, §3, §4, §5, §6, §7, §8, §9

TRKA = molecular target: T11, TRKA (Homo sapiens, UniProt P04629); conditions: 5 μM HU-MCA-13; intracellular kinase domain
T11 construct: purchased BPS Bio 40280 (lot 151113G)
T11 sequence (P04629 442-796): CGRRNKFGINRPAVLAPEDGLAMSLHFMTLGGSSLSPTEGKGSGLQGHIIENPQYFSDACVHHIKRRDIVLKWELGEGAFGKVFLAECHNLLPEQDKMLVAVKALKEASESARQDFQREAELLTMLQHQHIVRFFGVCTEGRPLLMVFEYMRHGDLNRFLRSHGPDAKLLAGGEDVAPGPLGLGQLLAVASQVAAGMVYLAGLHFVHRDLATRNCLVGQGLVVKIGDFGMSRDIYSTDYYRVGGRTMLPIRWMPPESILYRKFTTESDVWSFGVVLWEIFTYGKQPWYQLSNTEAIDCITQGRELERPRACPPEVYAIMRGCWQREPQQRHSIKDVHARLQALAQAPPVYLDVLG
Description: as §1, §2, §3, §4, §5, §6, §7, §8, §9

IKKβ = molecular target: T12, IKKβ (Homo sapiens, UniProt O14920); conditions: 5 μM HU-MCA-13
T12 construct: purchased Invitrogen PV3836
Description: as §1, §2, §3, §4, §5, §6, §7, §8, §9

ERK2 = molecular target: T13, ERK2 (Homo sapiens, UniProt P28482); conditions: 5 μM HU-MCA-13
T13 construct: ERK2, amino acids 1-360, Carna; purchased Carna 04-143
T13 sequence (P28482 whole entry, the tested form may be a part): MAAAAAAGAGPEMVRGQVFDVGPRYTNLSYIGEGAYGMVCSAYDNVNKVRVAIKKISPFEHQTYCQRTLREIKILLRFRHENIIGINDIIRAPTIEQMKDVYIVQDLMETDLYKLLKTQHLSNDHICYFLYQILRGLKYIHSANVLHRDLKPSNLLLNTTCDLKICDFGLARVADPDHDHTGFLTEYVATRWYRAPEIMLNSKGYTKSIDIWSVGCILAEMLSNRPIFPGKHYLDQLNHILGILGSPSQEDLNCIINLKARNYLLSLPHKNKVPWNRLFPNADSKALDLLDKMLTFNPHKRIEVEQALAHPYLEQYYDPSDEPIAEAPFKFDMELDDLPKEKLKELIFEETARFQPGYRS
Description: as §1, §2, §3, §4, §5, §6, §7, §8, §9

T1 sequence (Q16620 456-822): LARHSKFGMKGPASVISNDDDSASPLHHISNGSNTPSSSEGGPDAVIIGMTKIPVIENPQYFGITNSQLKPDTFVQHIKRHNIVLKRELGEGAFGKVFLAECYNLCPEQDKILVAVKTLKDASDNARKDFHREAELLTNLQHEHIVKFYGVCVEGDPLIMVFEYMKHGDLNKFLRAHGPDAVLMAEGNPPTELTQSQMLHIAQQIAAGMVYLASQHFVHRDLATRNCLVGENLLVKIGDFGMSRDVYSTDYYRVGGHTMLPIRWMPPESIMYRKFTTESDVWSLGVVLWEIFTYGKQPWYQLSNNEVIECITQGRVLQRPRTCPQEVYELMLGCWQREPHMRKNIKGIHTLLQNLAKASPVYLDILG

C=CCC1CCCC(CCC(=O)O)C1=C (stereo not shown) [HU-MCA-13, 3-(3-allyl-2-methylenecyclohexyl)propanoic acid]
no effects: modulation of phosphorylation activity (TRK B) | effect on kinase activity (AKT1) | effect on kinase activity (GSK3β) | effect on kinase activity (IGF1R) | effect on kinase activity (PDGFRβ) | effect on kinase activity (FGFR 2) | effect on kinase activity (KDR-VEGFR) | effect on kinase activity (EGFR) | effect on kinase activity (p38α) | effect on kinase activity (CDK5) | modulation of phosphorylation activity (TRKA) | effect on kinase activity (IKKβ) | effect on kinase activity (ERK2)

— paper PMC7497641, “Neurotropic activity and safety of methylene-cycloalkylacetate (MCA) derivative 3-(3-allyl-2-methylenecyclohexyl) propanoic acid” (ACS Chemical Neuroscience, 2020)
